Laboratory results as given in US20250352500A1, “USE OF PHENOLIC ACIDS DERIVATIVES IN TREATING ISCHEMIC STROKE” (LANZHOU UNIVERSITY, priority 2022, published 2025).

What was measured:
MCAO model mice [1] = assay: Zea-Longa neurological function score in MCAO model mice; format: in vivo, male C57/BL mice
Description: Male C57/BL mice weighing 23±1 g were randomly divided into sham operation group (SHAM), model group (MCAO) and drug administration groups (50 mg/kg, 100 mg/kg, 200 mg/kg), with 6 mice in each group. Mice in the SHAM group underwent vascular isolation, but no […] was administered, and no treatment was given before or after surgery. The model group mice were constructed with ischemic MCAO models, and no treatment was given before and after surgery. The drug administration group was treated with compound 2 on the basis of the model group. Mice with a neurological score of 0 after reperfusion and those that died before 72 hours post-surgery were excluded. The drugs were administered through the tail vein at 0, 1, and 2 days after reperfusion. The SHAM group and MCAO group were given equal volumes of saline.
The neurological function score reflects the neurological injury status of MCAO model mice. After 24 hours of modeling, the neurological function score was performed (refer to the Zea-Longa scoring screening method). Mice with scores of 1-3 were successfully modeled, and those with scores of 0 and 4 were excluded.
In this experiment, the Zea-Longa scoring method was used to score the sham hand group (SHAM), model group (MCAO), compound 2 (50 mg/kg) group, compound 2 (100 mg/kg) group, and compound 2 (200 mg/kg) group. The main scoring time points were before surgery, day 1, day 2, and day 3.

MCAO model mice [2] = assay: Modified neurological severity score (mNSS, 14-point scale); format: in vivo, male C57/BL mice
Description: Grouping and administration method: Male C57/BL mice weighing 23±1 g were randomly divided into sham operation group (SHAM), model group (MCAO), compound 2 group (100 mg/kg), and compound 1 group (50 mg/kg), with 10 mice in each group. Mice in the SHAM group underwent vascular isolation, but no […] was administered, and no treatment was given before or after surgery. The model group mice were constructed with MCAO models and were not treated before and after surgery. The treatment group was treated with compound 2 or compound 1 on the basis of the model group. Mice with a neurological score of 0 after reperfusion and those that died before 72 hours post-surgery were excluded. The administration time for animal behavior tests was seven times at 0 h, 1 day, 2 days, 3 days, 4 days, 5 days, and 6 days after reperfusion, while the administration time for other experiments was three times at 0 h, 1 day, and 2 days after reperfusion. The drug was administered through the tail vein, and the sham operation group and model group were given equal amounts of saline.
In addition, the neurological deficit score (mNSS) method shown in the table above was used to score the neurological function of each group of mice on a 14-point scale. Neurobehavioral scores were assessed in mice of the SHAM group, MCAO group, Compound 2 group, and Compound 1 group on day 1, 3, 5, and 7 post-surgery. […]

Compound: O=C(O)c1cc(OP(=O)(O)O)ccc1OP(=O)(O)O [compound 2]
- Zea-Longa neurological score compared with the model group (MCAO model mice [1]; 24 hours of reperfusion, 50, 100, 200 mg/kg via tail vein): no significant difference
- Zea-Longa neurological score compared with the model group (MCAO model mice [1]; after 48 hours, 100 mg/kg via tail vein, P<0.001): most significant decrease
- Zea-Longa neurological score compared with the model group (MCAO model mice [1]; after 48 hours, three concentrations (50, 100, 200 mg/kg) via tail vein): decreased significantly
- Zea-Longa neurological score compared with the model group (MCAO model mice [1]; after 72 hours of reperfusion, 100 mg/kg via tail vein, P<0.001): significantly decreased
- Neurological function (mNSS 14-point scale) compared with the compound 1 group (MCAO model mice [2]; compound 2 100 mg/kg vs compound 1 50 mg/kg): significantly improved
- Neurological function (mNSS 14-point scale) compared with MCAO group (MCAO model mice [2]; day 1 to day 7 of reperfusion, 100 mg/kg tail vein): improved significantly
